This note sets out measurements from patent US6485746B1, “Controlled-release sedative-hypnotic compositions and methods related thereto” (Neurocrine Biosciences, Inc., priority 2000, dated 2002).

≈ marks a conversion by molar mass, not a printed value.

The nature of data set [1]: Plasma pharmacokinetics of NBI-34060 (half-life, volume of distribution). It is filed as in vivo, human. From the text:
The mean plasma half-life of a sedative-hypnotic compound may be determined using well known techniques. Terminal half-life may be determined using standard pharmacokinetic calculations, such as those presented by Rolland and Tozer (Clinical Pharmacokinetics Concepts and Applications, 3rd. Ed., Chap. 3, 1995). in addition, software is commercially available which performs this calculation, such as the product sold under the tradename “WinNinlin™”(Prof. Ver. 1.5). […] This is estimated by linear regression analysis of the time vs. log concentration of the test compound.
In this experiment, commercially available plasma profiling software (GastroPlus™) (Simulations Plus Inc., CA.) was used to simulate the effects of varying controlled release profiles and pharmacokinetic parameters based on in vivo plasma concentrations of NBI-34060 as measured in 12-healthy male human subjects. […] This assumed that the lower CL drug would distribute to the same tissues as the higher CL drug, so that all half-life changes were because of differences in metabolism and/or renal clearance rather than in volumes. Two oral plasma concentration-time files were created (NBI-Target-Hi.opd and NBI-Target-Lo.opd) with plasma concentration-time points serving as targets (shown as a square in FIGS. 2, 3, 4 and 5). The requirements for Tmax2 for the high target was set at 100% of Tmax1.

Data set [2] can be described thus: Solubility in water.

In data set [1] (male, human, plasma half-life), `CC(=O)N(C)c1cccc(-c2ccnc3c(C(=O)c4cccs4)cnn23)c1` [NBI-34060, N-methyl-N-(3-{3-[2-thienylcarbonyl]-pyrazolo-[1,5-a]-pyrimidin-7-yl}-phenyl)acetamide] showed a half-life of roughly 1.3 h. The same compound showed a Vd in data set [1] (one-compartment pharmacokinetic model, based on in vivo plasma concentrations in 12 healthy male human subjects) of 159 L. For the same compound, in data set [2] (pH of the solution in water at approximately 20-30 μg/ml), the “resulting pH” value is on record as “approximately 8.0”. For the same compound, the solubility in data set [2] (water, pH 8, water) was in the range of 20 to 30 µg/mL (≈ 53.1 to 79.7 µM).
